The values that follow are results of earlier work, collected in PMC6709472 (Antimicrobial Agents and Chemotherapy, 2019).

The conditions of data set [1]: read-out: 50% effective concentration [EC50]; in vitro activity quoted for VL development.
Data set [2] relates to visceral leishmaniasis (VL). Particulars: 12.5 mg/kg of body weight orally twice a day; hamster models of VL.

As to `O=[N+]([O-])c1cn2c(n1)O[C@@H](COc1ccc(-c3ccc(F)cc3)nc1)CC2` [DNDI-0690], the EC50 in data set [1] was 170 nM. The in vivo efficacy in data set [2] was above 99%.
